Laboratory results: patent US12239132B2, “Compounds and methods for increasing soil nutrient availability” (SOUND AGRICULTURE COMPANY, priority 2018, dated 2025)

How the values were obtained:
innate soil microbes = assay: Phosphate solubilization in commercial potting soil, sterile vs non-sterile; format: cell-based; details: 12 days
Experimental: In some aspects, a compound disclosed herein, e.g., AB09, stimulates phosphate solubilization of innate soil microbes. The induced phosphate solubilization enhancement was tested for in plant-free soil, which contains an innate diverse microflora of bacteria and fungi. Soil was evenly distributed into pots, half of which were pressure-sterilized in an autoclave. Half of the sterile and half of the non-sterile soil received a treatment. Control pots received a mock treatment. Pots were covered, incubated at room temperature, and orthophosphate levels were measured after twelve days. […] Three replicates of 20 mg air dried soil were measured from each pot and placed into 1.5 mL eppendorf tubes. […] In some instances, disclosed herein are measured phosphate levels at 12 days post treatment. […]
The effect of AB09 on a soil microbiome's innate ability to solubilize phosphorus was tested using commercially available soil, which contains a diverse microflora of bacteria. […] After 12 days of incubation soil phosphorus was extracted using the Bray-1P method and quantified using the malachite green assay.
Phosphate levels at 12 days post treatment. […] Orthophosphate was measured using the malachite-green phosphate method.
Orthophosphate was measured using the malachite-green phosphate method (BioAssay Systems Malachite Green Phosphate Assay Kit Catalog No: POMG-25H). […] Data are quantified on a plate reader at 620 nm. […]

soil consortia cultures = assay: 16S microbiome analysis of soil cultures grown in nitrogen free media; format: cell-based; details: Alpha soil culture, 25 ug/mL, 72 h, vs control
Experimental: 16S microbiome analysis was performed on soil-inoculated cultures grown in nitrogen free media in order to compare the effects of AB09 treatment vs control. […] The increased abundance of these diazotrophs in response to AB09 is consistent with the increased nitrogenase activity observed in Table 1 for Alpha soil. […] Known nitrogen fixing bacteria are indicated with an asterisk (*). Soil inoculated cultures (from Alpha Ag soil culture from Table 1) experience an increase in the relative abundance of diazotrophs when treated with AB09. Soil from agricultural areas was air dried and sieved with a 2 mm sieve. Five hundred milligrams of dried, sieved soil was added to 50 mL of nitrogen free media (Burks-N) in a 250 mL baffled flask. AB09 was added to 25 ug/mL and water was added in equivalent amounts for controls. Flasks were topped with a foam plug and incubated at 30 C, shaking at 100 rpm. DNA was extracted from 250 ul of the soil culture after 72 h of growth using the Qiagen PowerSoil Pro Kit (Cat No. 47014). DNA was checked on a gel and Qubit for quality and concentration, respectively. Ten nanograms of DNA was used in the 16S barcoding kit (SQK-RAB204) with the MinION sequencer. Fastq files from MinKnow were uploaded to Epi2Me and the 16S Oxford Nanopore Technologies kit (SQK-RAB204) was selected. […] Read counts were normalized to the total number of reads with an identified barcode.

In the case of `CC1=CC(Oc2c(C)occc2=O)OC1=O` (stereo not drawn) [AB09, maltol lactone], the “level of orthophosphate in non-sterile soil” value (innate soil microbes; 24 ug/mL in 1% DMSO, 25 mL per pot, Bray-P1 extraction, vs non-sterile control) is reported as “significantly increased”, the “AB09-induced phosphorus enhancement in sterile soil” value (innate soil microbes; autoclaved soil, 24 ug/mL) is reported as “not observed” and the “abundance of nitrogen fixing bacteria Azotobacter chroococcum and Pseudomonas stutzeri” value (soil consortia cultures) is reported as “increased the abundance”.
